This is an account of results in patent publication US20220289698A1, “INHIBITORS OF HUMAN ATGL” (Karl-Franzens-Universität Graz, priority 2019, published 2022).

Holding throughout (format): biochemical
In one assay the target is T1, hHSL (Homo sapiens, UniProt Q05469).
T1 construct: made in house; host or cells: Expi cells (lysate)
T1 sequence (Q05469 1-1076): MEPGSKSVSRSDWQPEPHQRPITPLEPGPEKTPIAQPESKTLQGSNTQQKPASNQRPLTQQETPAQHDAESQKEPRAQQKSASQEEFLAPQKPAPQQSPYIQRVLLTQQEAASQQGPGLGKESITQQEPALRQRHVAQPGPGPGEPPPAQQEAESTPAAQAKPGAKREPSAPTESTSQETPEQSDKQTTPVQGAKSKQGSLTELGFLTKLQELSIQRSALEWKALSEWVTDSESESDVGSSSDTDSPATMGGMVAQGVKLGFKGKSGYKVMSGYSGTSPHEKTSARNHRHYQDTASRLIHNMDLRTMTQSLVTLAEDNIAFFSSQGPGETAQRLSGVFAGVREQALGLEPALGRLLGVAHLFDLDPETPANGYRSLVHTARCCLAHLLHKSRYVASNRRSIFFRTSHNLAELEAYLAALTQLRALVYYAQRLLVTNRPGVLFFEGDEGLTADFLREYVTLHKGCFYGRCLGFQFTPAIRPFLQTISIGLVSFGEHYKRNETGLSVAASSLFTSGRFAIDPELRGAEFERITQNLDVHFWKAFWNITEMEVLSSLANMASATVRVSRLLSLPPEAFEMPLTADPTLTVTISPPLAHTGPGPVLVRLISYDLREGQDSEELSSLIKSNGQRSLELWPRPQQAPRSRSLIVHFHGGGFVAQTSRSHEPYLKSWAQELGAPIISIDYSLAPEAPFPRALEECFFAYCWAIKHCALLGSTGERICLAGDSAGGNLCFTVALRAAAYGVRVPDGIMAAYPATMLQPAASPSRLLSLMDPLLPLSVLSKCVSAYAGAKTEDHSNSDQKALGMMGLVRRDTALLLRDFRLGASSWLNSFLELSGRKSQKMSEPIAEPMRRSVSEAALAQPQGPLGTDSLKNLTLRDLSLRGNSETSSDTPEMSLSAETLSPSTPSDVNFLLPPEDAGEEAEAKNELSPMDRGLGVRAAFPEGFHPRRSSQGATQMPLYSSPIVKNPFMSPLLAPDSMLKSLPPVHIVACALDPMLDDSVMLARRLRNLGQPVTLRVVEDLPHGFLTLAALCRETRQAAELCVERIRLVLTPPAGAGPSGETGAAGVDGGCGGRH
Put plainly: hHSL off-target inhibition. The settings on record: read-out: hHSL off-target inhibition [% inhibition at 100 μM]. As to the method:
Expi lysates expressing hHSL were preincubated with 100 μM Inhibitors for 30 min and incubated with 1 mM pNV substrate for 30 min. Samples measured in triplicates.

A further assay has as its system rhesus monkey ATGL. Put plainly: Rhesus monkey ATGL inhibition, Expi lysates + CGI-58. The protocol:
Lysates from Expi cells overexpressing ATGL from rhesus monkeys (Macaca mulatta) were incubated with recombinant purified ATGL co-activator CGI-58 and ATGL inhibitors at 50 μM. Subsequently, substrate containing radiolabeled triolein was added and liberated FA were extracted and quantified by liquid scintillation. Inhibitors were dissolved in DMSO which was used as control. Samples were measured in triplicates.

The target in the next assay is T2, rat ATGL (Rattus norvegicus, UniProt P0C548).
T2 construct: made in house; host or cells: Expi cells (lysate)
T2 sequence (P0C548 1-478): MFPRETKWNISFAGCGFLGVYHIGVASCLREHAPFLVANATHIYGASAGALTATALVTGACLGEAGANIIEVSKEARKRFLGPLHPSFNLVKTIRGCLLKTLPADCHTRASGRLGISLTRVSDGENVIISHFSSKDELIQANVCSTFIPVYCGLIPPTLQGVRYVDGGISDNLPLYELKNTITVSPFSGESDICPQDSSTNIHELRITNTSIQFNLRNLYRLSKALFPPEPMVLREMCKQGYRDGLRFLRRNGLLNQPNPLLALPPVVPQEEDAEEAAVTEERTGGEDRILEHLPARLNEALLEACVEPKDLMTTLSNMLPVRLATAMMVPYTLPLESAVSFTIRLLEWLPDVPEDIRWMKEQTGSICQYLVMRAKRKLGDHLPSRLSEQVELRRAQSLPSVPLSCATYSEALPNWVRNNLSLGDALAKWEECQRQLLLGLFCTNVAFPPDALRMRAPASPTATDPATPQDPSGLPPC
Kind of assay: Rat ATGL inhibition, Expi lysates + CGI-58. As to the method:
Lysates from Expi cells overexpressing ATGL from rat (Rattus norvegicus) were incubated with recombinant purified ATGL co-activator CGI-58 and ATGL inhibitors at 50 μM. Subsequently, substrate containing radiolabeled triolein was added and liberated FA were extracted and quantified by liquid scintillation. Inhibitors were dissolved in DMSO which was used as control. Samples were measured in triplicates.

The subject of another assay is goat ATGL. Put plainly: Goat ATGL inhibition, Expi lysates + CGI-58. As to the method: Lysates from Expi cells overexpressing ATGL from goat (Capra hircus) were incubated with recombinant purified ATGL co-activator CGI-58 and ATGL inhibitors at 50 μM. Subsequently, substrate containing radiolabeled triolein was added and liberated FA were extracted and quantified by liquid scintillation. Inhibitors were dissolved in DMSO which was used as control. Samples were measured in triplicates.

Turning to `CCOc1ccc(-c2cc(OC)cc(C(=O)OC(C)C)n2)cc1` [Example 35], the inhibition at 100 µM on hHSL was determined as 0%.
In the case of `CCOc1ccc(-c2nc(C(=O)OCc3cccs3)cs2)cc1` [Example 152, Thiophen-2-ylmethyl 2-(4-ethoxyphenyl)thiazole-4-carboxylate], the inhibition at 100 µM on hHSL stood at 25%. The “rhesus monkey ATGL inhibition [% inhibition at 50 μM]” value in the assay on rhesus monkey ATGL was determined as 10%. Also, the inhibition at 50 µM at rat ATGL is 10%. Also, in the assay on goat ATGL, the “goat ATGL inhibition [% inhibition at 50 μM” value stood at 0%.
Take `CCOc1ccc(-c2cccc(C(=O)OCc3cccs3)n2)cc1` [Example 189, Thiophen-2-ylmethyl 6-(4-ethoxyphenyl)picolinate]: on hHSL, the inhibition at 100 µM is 0%. Besides, the “rhesus monkey ATGL inhibition [% inhibition at 50 μM]” value in the assay on rhesus monkey ATGL was 70%. Moreover, the inhibition at 50 µM at rat ATGL stood at 10%. The “goat ATGL inhibition [% inhibition at 50 μM” value in the assay with goat ATGL was found to be 50%.
The like results for `CCOc1ccc(-c2cccc(C(=O)OCc3ccco3)n2)cc1` [Example 190, Furan-2-ylmethyl 6-(4-ethoxyphenyl)picolinate] were, in that order, 0%, 70%, 40% and 25%.
The like results for `COc1cc(C(=O)OC(C)C)nc(-c2ccc(OC(C)C)cc2)c1` [Example 201, Isopropyl 6-(4-isopropoxyphenyl)-4-methoxypicolinate] were, in that order, 0%, 95%, 0% and 0%.
Taken in the same sequence, the figures for `CC#CCOC(=O)c1csc(-c2ccc(OCC)cc2)n1` [Example 209, But-2-yn-1-yl 2-(4-ethoxyphenyl)thiazole-4-carboxylate] were 40%, 70%, 40% and 25%.
Take `C#C[C@H](C)OC(=O)c1csc(-c2ccc(OCC)cc2)n1` [Example 210, (S)-But-3-yn-2-yl 2-(4-ethoxyphenyl)thiazole-4-carboxylate]: the inhibition at 100 µM on hHSL stood at 0%. In the assay on rhesus monkey ATGL, the “rhesus monkey ATGL inhibition [% inhibition at 50 μM]” value turned out to be 90%. Moreover, the inhibition at 50 µM at rat ATGL was found to be 15%. Besides, in the assay on goat ATGL, the “goat ATGL inhibition [% inhibition at 50 μM” value worked out at 20%.
The like results for `C#C[C@@H](C)OC(=O)c1csc(-c2ccc(OCC)cc2)n1` [Example 211, (R)-But-3-yn-2-yl 2-(4-ethoxyphenyl)thiazole-4-carboxylate] were, in that order, 40%, 100%, 50% and 30%.
Taken in the same sequence, the figures for `CCCCOC(=O)c1csc(-c2ccc(OCC)cc2)n1` [Example 212, Butyl 2-(4-ethoxyphenyl)thiazole-4-carboxylate] were 0%, 70%, 40% and 20%.
Taken in the same sequence, the figures for `CCOc1ccc(-c2nc(C(=O)OCc3ccsc3)cs2)cc1` [Example 215, Thiophen-3-ylmethyl 2-(4-ethoxyphenyl)thiazole-4-carboxylate] were 30%, 70%, 50% and 50%.
For `CCOc1ccc(-c2nc(C(=O)OCc3ccoc3)cs2)cc1` [Example 216, Furan-3-ylmethyl 2-(4-ethoxyphenyl)thiazole-4-carboxylate], at hHSL, the inhibition at 100 µM amounted to 30%. For the same molecule, in the assay with rhesus monkey ATGL, the “rhesus monkey ATGL inhibition [% inhibition at 50 μM]” value is 70%. In addition, at rat ATGL, the inhibition at 50 µM was found to be 50%. In the assay on goat ATGL, the “goat ATGL inhibition [% inhibition at 50 μM” value stood at 50%.
Consider `CCOc1ccc(-c2nc(C(=O)OCc3ccc(Cl)s3)cs2)cc1` [Example 223, (5-Chlorothiophen-2-yl)methyl 2-(4-ethoxyphenyl)thiazole-4-carboxylate], for which the inhibition at 100 µM on hHSL was 40%. For the same molecule, the “rhesus monkey ATGL inhibition [% inhibition at 50 μM]” value in the assay with rhesus monkey ATGL turned out to be 65%. Moreover, the inhibition at 50 µM on rat ATGL was determined as 40%. Besides, in the assay on goat ATGL, the “goat ATGL inhibition [% inhibition at 50 μM” value amounted to 40%.
Turning to `CCOc1ccc(-c2nc(C(=O)OCc3ccc(Br)s3)cs2)cc1` [Example 224, (5-Bromothiophen-2-yl)methyl 2-(4-ethoxyphenyl)thiazole-4-carboxylate], the inhibition at 100 µM at hHSL was 95%. Besides, in the assay with rhesus monkey ATGL, the “rhesus monkey ATGL inhibition [% inhibition at 50 μM]” value came out at 70%. Further, at rat ATGL, the inhibition at 50 µM turned out to be 40%. In the assay on goat ATGL, the “goat ATGL inhibition [% inhibition at 50 μM” value was 40%.

As usually defined, the inhibition is how much of the control response was suppressed.
